Reference: patent US10314771B2, “Methods and compositions for preventing and treating tooth erosion” (University of Tennessee Research Foundation, priority 2013, dated 2019)

Procedure: The capacity of sodium bicarbonate to neutralize acid saliva was assessed. A pool of saliva was collected from 5 individuals, and the normal pH of the saliva was measured before brushing or eating. […] In order to simulate an acidic challenge, the pH of the saliva was adjusted to 2.5 with 0.01M HCl.
The saliva was titrated with a 3M sodium bicarbonate solution and measured the volume of solution necessary to neutralize the saliva to a pH of 6.8.

SMILES: O=C([O-])O.[Na+] [Sodium Bicarbonate, sodium bicarbonate]
- volume needed to neutralize the acidic saliva to a pH of 7.0 (3M solution): 2.0 mLs
- rinsing time sufficient to help neutralize the saliva (rinsing with a sodium bicarbonate solution): 30 s
